Columns and labels:
[1] = test system: ragweed (common ragweed, Ambrosia artemisiifolia); test: Test A postemergence, ragweed; assay type: in vivo; conditions: Ambrosia artemisiifolia, post-emergence, 240 h, read-out: Plant response rating, Ragweed
Outline: (§1)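 Seeds are sown in loam mixed with sand and sprayed on the soil surface right after planting for the preemergence test. Postemergence pots are sprayed once seedlings reach 2 to 10 cm at the one- to two-leaf stage. The same surfactant-containing, non-phytotoxic solvent formulation serves both.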

[2] = test system: Foxtail, Giant (giant foxtail, Setaria faberi); test: Test A postemergence, Foxtail, Giant; assay type: in vivo; conditions: Setaria faberi, post-emergence, 240 h, read-out: Plant response rating, Foxtail, Giant
Outline: as §1

[3] = test system: pigweed (Amaranthus retroflexus); test: Test A postemergence, pigweed; assay type: in vivo; conditions: Amaranthus retroflexus, post-emergence, 240 h, read-out: Plant response rating, Pigweed
Outline: as §1

[4] = test system: barnyardgrass (Echinochloa crus-galli); test: Test B flooded paddy test, barnyardgrass; conditions: 336 h, read-out: Plant response rating, Barnyardgrass
[5] = test system: wheat (Triticum aestivum); test: Test A postemergence, wheat; assay type: in vivo; conditions: Triticum aestivum, post-emergence, 240 h, read-out: Plant response rating, Wheat
Outline: (§2)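 Preemergence: pigweed seeds in loam soil–sand blend received a directed soil spray of test chemicals in a non-phytotoxic solvent with surfactant. Postemergence: barnyardgrass, wheat and galium in pots of the same soil, 2 to 10 cm tall at one- to two-leaf stage, sprayed with the same formulation.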

rice (Oryza sativa) = test: Test B flooded paddy test, rice; conditions: 336 h, read-out: Plant response rating, Rice
corn (Zea mays) = test: Test A postemergence, corn; assay type: in vivo; conditions: Zea mays, post-emergence, 240 h, read-out: Plant response rating, Corn
Outline: as §1

[6] = test system: Ryegrass, Italian (Italian ryegrass, Lolium multiflorum); test: Test A preemergence, Ryegrass, Italian; assay type: in vivo; conditions: Lolium multiflorum, pre-emergence, 240 h
Outline: as §1

kochia (Bassia scoparia) [7] = test: Test A preemergence, kochia; assay type: in vivo; conditions: Bassia scoparia, pre-emergence, 240 h
Outline: as §1

kochia (Bassia scoparia) [8] = test: Test A postemergence, kochia; assay type: in vivo; conditions: Bassia scoparia, post-emergence, 240 h, read-out: Plant response rating, Kochia
Outline: as §1

[9] = test system: barnyardgrass (Echinochloa crus-galli); test: Test A preemergence, barnyardgrass; assay type: in vivo; conditions: Echinochloa crus-galli, pre-emergence, 240 h
Outline: as §1

[10] = test system: Ryegrass, Italian (Italian ryegrass, Lolium multiflorum); test: Test A postemergence, Ryegrass, Italian; assay type: in vivo; conditions: Lolium multiflorum, post-emergence, 240 h, read-out: Plant response rating, Ryegrass, Italian
Outline: as §1

[11] = test system: galium (catchweed bedstraw, Galium aparine); test: Test A postemergence, galium; assay type: in vivo; conditions: Galium, post-emergence, 240 h, read-out: Plant response rating, Galium
Outline: as §2

[12] = test system: ragweed (common ragweed, Ambrosia artemisiifolia); test: Test A preemergence, ragweed; assay type: in vivo; conditions: Ambrosia artemisiifolia, pre-emergence, 240 h
Outline: as §1

[13] = test system: blackgrass (Alopecurus myosuroides); test: Test A postemergence, blackgrass; assay type: in vivo; conditions: Alopecurus myosuroides, post-emergence, 240 h, read-out: Plant response rating, Blackgrass
Outline: as §1

[14] = test system: Foxtail, Giant (giant foxtail, Setaria faberi); test: Test A preemergence, Foxtail, Giant; assay type: in vivo; conditions: Setaria faberi, pre-emergence, 240 h
Outline: as §1

[15] = test system: ducksalad (Heteranthera limosa); test: Test B flooded paddy test, ducksalad; conditions: 336 h, read-out: Plant response rating, Ducksalad
[16] = test system: barnyardgrass (Echinochloa crus-galli); test: Test A postemergence, barnyardgrass; assay type: in vivo; conditions: Echinochloa crus-galli, post-emergence, 240 h, read-out: Plant response rating, Barnyardgrass
Outline: as §2

## Cc1cc(C)c(N(S(=O)(=O)C(F)(F)F)S(=O)(=O)C(F)(F)F)cc1N1CCC2(CCCCC2)C1=O [Compound 267, N-[2,4-Dimethyl-5-(1-oxo-2-azaspiro[4.5]dec-2-yl)phenyl]-1,1,1-trifluoro-N-[(trifluoromethyl)sulfonyl]methanesulfonamide]
[1]
  pest or weed control at 125 g/ha: 10%
  pest or weed control at 500 g/ha: 40%
[2]
  pest or weed control at 125 g/ha: 0%
  pest or weed control at 500 g/ha: 0%
[3]
  pest or weed control at 125 g/ha: 50%
  pest or weed control at 500 g/ha: 80%
[4]
  pest or weed control at 250 g/ha: 0%
[5]
  plant injury at 125 g/ha: 40%
  plant injury at 500 g/ha: 60%
Rice (Oryza sativa)
  plant injury at 250 g/ha: 0%
Corn (Zea mays)
  plant injury at 125 g/ha: 0%
  plant injury at 500 g/ha: 0%
[6]; read-out: Plant response rating, Ryegrass, Italian
  pest or weed control at 125 g/ha: 90%
[6]; read-out: Ryegrass, Italian plant response rating
  pest or weed control at 500 g/ha: 100%
Kochia (Bassia scoparia) [7]; read-out: Kochia plant response rating
  pest or weed control at 500 g/ha: 100%
Kochia (Bassia scoparia) [7]; read-out: Plant response rating, Kochia
  pest or weed control at 125 g/ha: 80%
Kochia (Bassia scoparia) [8]
  pest or weed control at 125 g/ha: 40%
  pest or weed control at 500 g/ha: 60%
[9]; read-out: Barnyardgrass plant response rating
  pest or weed control at 500 g/ha: 100%
[9]; read-out: Plant response rating, Barnyardgrass
  pest or weed control at 125 g/ha: 100%
[10]
  pest or weed control at 125 g/ha: 0%
  pest or weed control at 500 g/ha: 30%
[11]
  pest or weed control at 125 g/ha: 80%
  pest or weed control at 500 g/ha: 90%
[12]; read-out: Plant response rating, Ragweed
  pest or weed control at 125 g/ha: 100%
[12]; read-out: Ragweed plant response rating
  pest or weed control at 500 g/ha: 100%
[13]
  pest or weed control at 125 g/ha: 0%
  pest or weed control at 500 g/ha: 20%
[14]; read-out: Foxtail, Giant plant response rating
  pest or weed control at 500 g/ha: 100%
[14]; read-out: Plant response rating, Foxtail, Giant
  pest or weed control at 125 g/ha: 100%
[15]
  pest or weed control at 250 g/ha: 35%
[16]
  pest or weed control at 125 g/ha: 20%
  pest or weed control at 500 g/ha: 20%

Reference: patent US20230278972A1, “SUBSTITUTED HALOALKYL SULFONANILIDE HERBICIDES” (FMC Corporation, priority 2020, published 2023)
